The test system of experiment [1] is caspase 3/7 in HCT116 cells. Description: Caspase 3/7 activation assay. As to conditions: SAHA 5 µM, quercetin 100 µM, QMJ-2 100 µM, QMJ-5 50 µM; for percentage of apoptotic cells (Apoptotic/Dead, caspase 3/7): normal control 24.60%; for percentage of live cells (caspase 3/7): normal control 69.40%. Format: cell-based, human. The procedure:
The downstream signaling pathway of apoptosis was determined using the caspase 3/7 activation assay. In brief, as per the caspase 3/7 activation kit protocol (#MCH100108), 1 × 10^6 cells were seeded in the cell culture dish and after overnight adherence, were incubated with the test compounds. The cells were detached by trypsinization, centrifuged, and washed with PBS. Cell suspension (50 µl) was mixed with the caspase 3/7 antibody reagent (5 µl) and incubated at 37°C temperature for 30 min. 7-AAD (7-amino-actinomycin D) working solution (150 µl) was added, and stained cells were then analyzed in Muse Cell Analyzer (#0500-3115 Merck Millipore).

The target of experiment [2] is T1, recombinant human HDAC6 enzyme (Homo sapiens, UniProt Q9UBN7).
T1 construct: purchased Enzo Life Sciences, Inc. USA
T1 sequence (Q9UBN7 1-1215): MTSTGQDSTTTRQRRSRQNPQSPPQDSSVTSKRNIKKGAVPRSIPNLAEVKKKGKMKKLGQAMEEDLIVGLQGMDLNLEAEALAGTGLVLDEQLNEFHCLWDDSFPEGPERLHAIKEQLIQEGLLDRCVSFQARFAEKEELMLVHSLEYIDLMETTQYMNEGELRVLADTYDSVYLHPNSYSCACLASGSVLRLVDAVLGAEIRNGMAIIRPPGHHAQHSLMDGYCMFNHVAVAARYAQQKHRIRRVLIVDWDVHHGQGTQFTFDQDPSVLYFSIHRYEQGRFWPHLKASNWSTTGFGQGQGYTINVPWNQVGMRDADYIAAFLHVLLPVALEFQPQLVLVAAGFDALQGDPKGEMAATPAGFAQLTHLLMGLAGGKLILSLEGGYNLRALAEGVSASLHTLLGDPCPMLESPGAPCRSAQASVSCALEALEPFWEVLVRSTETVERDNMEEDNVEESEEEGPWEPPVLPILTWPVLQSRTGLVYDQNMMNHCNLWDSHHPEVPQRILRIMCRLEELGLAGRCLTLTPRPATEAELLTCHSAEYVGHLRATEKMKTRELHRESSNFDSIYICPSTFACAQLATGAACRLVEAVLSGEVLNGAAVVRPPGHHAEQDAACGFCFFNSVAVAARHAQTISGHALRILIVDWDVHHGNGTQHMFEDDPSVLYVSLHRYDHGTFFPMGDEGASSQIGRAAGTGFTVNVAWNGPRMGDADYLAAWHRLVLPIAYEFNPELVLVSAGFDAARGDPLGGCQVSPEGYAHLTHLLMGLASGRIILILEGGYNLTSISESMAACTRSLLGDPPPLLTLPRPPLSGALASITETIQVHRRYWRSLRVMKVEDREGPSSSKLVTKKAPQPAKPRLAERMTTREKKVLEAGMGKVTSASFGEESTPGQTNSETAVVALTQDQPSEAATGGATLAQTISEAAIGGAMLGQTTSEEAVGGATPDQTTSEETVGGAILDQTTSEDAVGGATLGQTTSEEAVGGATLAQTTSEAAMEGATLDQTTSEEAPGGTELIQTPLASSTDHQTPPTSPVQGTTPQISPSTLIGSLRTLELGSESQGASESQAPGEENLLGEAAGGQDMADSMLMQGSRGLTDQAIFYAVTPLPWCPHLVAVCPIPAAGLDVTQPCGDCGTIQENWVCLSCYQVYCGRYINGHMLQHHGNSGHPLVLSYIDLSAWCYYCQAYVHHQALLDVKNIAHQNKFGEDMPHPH
Description: HDAC6 enzyme inhibition assay. Format: biochemical. As to conditions: mean ± SEM of three experiments. The procedure: The HDAC1 and 6 assays were carried out with few modifications from the previously described method. In brief, 10 µl of different concentration of test compounds was added to 40 µl of reaction mixture containing HDAC assay buffer, HDAC substrate, and recombinant human HDAC1 and 6 enzymes. The reactions were incubated for 30 min at 37°C. Then, 50 µl of trypsin stop solution was added in each well, and the plate was incubated at room temperature for an additional 20 min. Fluorescence intensity was measured at an excitation of 360 nm and an emission of 460 nm using a fluorescence microplate reader (FLx800, BioTek Instruments Inc. Winooski, VT, USA).

Experiment [3] has as its system HDAC enzyme in HCT116 cells. Put plainly: Whole cell HDAC inhibition assay. Format: cell-based. As to conditions: Homo sapiens, HCT-116, HCT116, 18 h treatment, mean ± SEM of three experiments. The procedure:
Confluent HCT116 cells were harvested and seeded in 96 well sterile black well plates at a density of 2000 cells per well and incubated overnight. Furthermore, the cells were treated with different concentrations of test compounds for a period of 18 h followed by the addition of […] BOC-Ac-Lys-AMC substrate and incubated for 1 h. […] The reaction was then allowed to proceed for 15 min at 37°C. Finally, the fluorescence intensity was measured at 360 nm excitation and 460 nm emission using a fluorescence microplate reader (FLx800, BioTek Instruments Inc., Winooski, VT, USA).

In experiment [4] the target is T2, recombinant human HDAC8 enzyme (Homo sapiens, UniProt Q9BY41).
T2 construct: purchased Enzo Life Science, NY, USA BML-AK518
T2 sequence (Q9BY41 1-377): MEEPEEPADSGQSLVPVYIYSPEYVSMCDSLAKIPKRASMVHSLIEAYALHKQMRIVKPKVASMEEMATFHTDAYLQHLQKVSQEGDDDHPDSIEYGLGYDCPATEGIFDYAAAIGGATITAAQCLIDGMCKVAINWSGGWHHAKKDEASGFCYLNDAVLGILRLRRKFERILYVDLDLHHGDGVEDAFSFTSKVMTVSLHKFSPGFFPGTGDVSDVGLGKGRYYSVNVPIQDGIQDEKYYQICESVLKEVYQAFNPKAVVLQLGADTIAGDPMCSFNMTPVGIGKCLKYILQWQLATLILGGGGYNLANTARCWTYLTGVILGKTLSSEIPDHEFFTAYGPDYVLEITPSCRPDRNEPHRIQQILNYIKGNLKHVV
Description: HDAC8 enzyme inhibition assay. Format: biochemical. As to conditions: mean ± SEM of three experiments. The procedure:
The enzymatic reaction was conducted as per Enzo Life Science, NY, USA (BML-AK518) kit protocol. In brief, 10 µl of different concentration of test compounds were added to a 40 µl reaction mixture containing the HDAC assay buffer, HDAC8 substrate, and recombinant human HDAC8 enzyme. The reactions were incubated for 20 min at 30°C. Then, 50 µl of the HDAC developer was added in each well, and the plate was incubated at room temperature for an additional 45 min. Fluorescence intensity was measured at an excitation of 360 nm and an emission of 460 nm using a fluorescence microplate reader (FLx800, BioTek Instruments Inc., Winooski, VT, USA).

As usually defined, the IC50 is the concentration at which inhibition is half-maximal. With `Cc1ccc(-c2oc3ccccc3c(=O)c2O)cc1` [QMJ-2, 3-Hydroxy-2-(4-methylphenyl)-4H-1-benzopyran-4-one], the “percentage of apoptotic cells (Apoptotic/Dead, caspase 3/7)” value in experiment [1] is recorded as 55.70%. In addition, in experiment [1], the “percentage of live cells (caspase 3/7)” value is reported as 37.40%. Besides, the IC50 in experiment [2] came to 165 ± 11.1 µM; in experiment [3] it was 182 ± 22 µM; in experiment [4] it was 36 ± 4.17 µM.

In the case of `Cc1ccc(-c2oc3cc(C)ccc3c(=O)c2O)cc1` [QMJ-5, 3-Hydroxy-7-methyl-2-(4-methylphenyl)-4H-1-benzopyran-4-one], in experiment [1], the “percentage of apoptotic cells (Apoptotic/Dead, caspase 3/7)” value was found to be 83.55%. Besides, the “percentage of live cells (caspase 3/7)” value in experiment [1] stood at 8.05%. The figures for the IC50 in experiment [2], in experiment [3] and in experiment [4] were 163 ± 7.05 µM, 70.2 ± 4.3 µM and 24 ± 2.8 µM, respectively.

For the molecule `O=c1c(O)c(-c2ccc(O)c(O)c2)oc2cc(O)cc(O)c12` [Quercetin, quercetin, reference compound], in experiment [1], the “percentage of apoptotic cells (Apoptotic/Dead, caspase 3/7)” value is reported as 59.65%. The IC50 in experiment [2] is 43.4 ± 2.17 µM; in experiment [3] it was 168 ± 6.9 µM; in experiment [4], 15.4 ± 1.53 µM.
